# Reference: ChEMBL document CHEMBL5465560, “Selectivity Literature for EUbOPEN Chemogenomic Library” (2024)
# Tests used:
# [1] = target: Serine/threonine-protein kinase 38 (Homo sapiens) (UniProt Q15208); test: Selectivity interaction (KinomeScan (DiscoverX)) EUB0000229b STK38; conditions: at 10 µM
# [2] = target: T1, Casein kinase I isoform alpha-like (Homo sapiens) (UniProt Q8N752); test: Selectivity interaction (KinomeScan (DiscoverX)) EUB0001079a CSNK1A1L; conditions: at 1 µM
# T1 sequence (whole entry): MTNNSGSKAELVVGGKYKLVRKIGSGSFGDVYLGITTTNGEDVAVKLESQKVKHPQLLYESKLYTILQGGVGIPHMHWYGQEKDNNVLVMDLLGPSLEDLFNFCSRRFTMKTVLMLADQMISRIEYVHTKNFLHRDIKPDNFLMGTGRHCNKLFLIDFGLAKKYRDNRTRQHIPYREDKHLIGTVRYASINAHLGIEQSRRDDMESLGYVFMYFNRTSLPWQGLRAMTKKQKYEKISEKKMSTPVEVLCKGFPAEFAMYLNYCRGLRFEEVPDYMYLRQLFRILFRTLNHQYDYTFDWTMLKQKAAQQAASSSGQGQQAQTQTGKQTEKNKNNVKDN
# [3] = target: Cyclin-dependent kinase 9 (Homo sapiens, UniProt P50750); test: Selectivity interaction (KinomeScan (DiscoverX)) EUB0000666a CDK9; conditions: at 10 µM
# Chain of Cyclin-dependent kinase 9 (P50750 whole entry): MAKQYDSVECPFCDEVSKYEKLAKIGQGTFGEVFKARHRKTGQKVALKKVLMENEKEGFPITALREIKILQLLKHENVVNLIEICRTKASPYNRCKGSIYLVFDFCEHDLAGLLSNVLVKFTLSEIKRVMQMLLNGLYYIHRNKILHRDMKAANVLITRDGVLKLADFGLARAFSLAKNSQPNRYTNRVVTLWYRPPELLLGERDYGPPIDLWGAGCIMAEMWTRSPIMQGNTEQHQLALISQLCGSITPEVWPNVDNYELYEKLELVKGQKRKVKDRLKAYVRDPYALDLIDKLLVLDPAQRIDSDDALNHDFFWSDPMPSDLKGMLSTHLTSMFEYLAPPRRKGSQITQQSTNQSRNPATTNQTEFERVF
# [4] = tested on: Tyrosine-protein kinase ABL1 (Homo sapiens), P00519 [H396P]; conditions: at 10 µM
# [5] = target: SRSF protein kinase 2 (Homo sapiens) (UniProt P78362); test: Selectivity interaction (Kinase panel (Invitrogen)) EUB0000639a SRPK2; conditions: at 200 nM
# Chain of SRSF protein kinase 2 (Homo sapiens) (P78362 whole entry, looked up): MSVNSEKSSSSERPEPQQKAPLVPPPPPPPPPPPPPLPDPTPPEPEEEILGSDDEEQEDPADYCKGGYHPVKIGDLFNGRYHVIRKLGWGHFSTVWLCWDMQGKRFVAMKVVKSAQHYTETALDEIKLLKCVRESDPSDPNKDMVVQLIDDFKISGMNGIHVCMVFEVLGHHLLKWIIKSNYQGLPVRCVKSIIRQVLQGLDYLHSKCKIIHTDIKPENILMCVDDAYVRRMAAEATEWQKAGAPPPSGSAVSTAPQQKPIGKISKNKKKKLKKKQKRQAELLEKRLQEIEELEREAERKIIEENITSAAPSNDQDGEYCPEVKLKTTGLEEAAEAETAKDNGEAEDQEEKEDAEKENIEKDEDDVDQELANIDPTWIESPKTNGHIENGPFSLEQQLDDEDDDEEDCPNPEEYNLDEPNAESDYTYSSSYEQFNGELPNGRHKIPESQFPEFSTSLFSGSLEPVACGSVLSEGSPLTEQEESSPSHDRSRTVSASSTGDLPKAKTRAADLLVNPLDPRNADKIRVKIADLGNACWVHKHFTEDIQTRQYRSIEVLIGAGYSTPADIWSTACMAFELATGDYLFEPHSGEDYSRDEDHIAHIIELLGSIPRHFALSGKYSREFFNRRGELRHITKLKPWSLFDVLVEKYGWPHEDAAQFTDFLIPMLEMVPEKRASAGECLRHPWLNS
# [6] = target: T2, Atypical kinase COQ8B, mitochondrial (Homo sapiens) (UniProt Q96D53); test: Selectivity interaction (KinomeScan (DiscoverX)) EUB0001049a ADCK4; conditions: at 1 µM
# T2 sequence (whole entry): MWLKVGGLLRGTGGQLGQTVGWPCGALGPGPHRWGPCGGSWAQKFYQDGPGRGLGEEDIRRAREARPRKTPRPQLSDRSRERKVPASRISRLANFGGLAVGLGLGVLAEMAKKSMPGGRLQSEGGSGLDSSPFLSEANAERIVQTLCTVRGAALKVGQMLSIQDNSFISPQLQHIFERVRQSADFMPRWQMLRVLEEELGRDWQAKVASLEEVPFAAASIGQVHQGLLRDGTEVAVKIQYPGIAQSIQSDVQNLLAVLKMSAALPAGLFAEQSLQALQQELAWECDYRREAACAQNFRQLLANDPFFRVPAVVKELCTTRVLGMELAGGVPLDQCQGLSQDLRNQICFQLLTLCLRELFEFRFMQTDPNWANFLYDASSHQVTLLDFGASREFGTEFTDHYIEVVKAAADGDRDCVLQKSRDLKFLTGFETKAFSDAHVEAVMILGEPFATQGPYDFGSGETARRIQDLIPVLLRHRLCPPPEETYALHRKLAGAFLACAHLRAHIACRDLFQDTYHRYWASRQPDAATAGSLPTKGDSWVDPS
# [7] = target: T3, Histone-lysine N-methyltransferase EHMT2 (Homo sapiens) (UniProt Q96KQ7); test: Selectivity interaction (Methyltransferase screen (radiometric assays, panel of 8 PRMTs, 21 protein lysine methyltransferases, 3 DNA methyltransferases, and one RNA methyltransferase)) EUB0000271b EHMT2
# T3 sequence (whole entry): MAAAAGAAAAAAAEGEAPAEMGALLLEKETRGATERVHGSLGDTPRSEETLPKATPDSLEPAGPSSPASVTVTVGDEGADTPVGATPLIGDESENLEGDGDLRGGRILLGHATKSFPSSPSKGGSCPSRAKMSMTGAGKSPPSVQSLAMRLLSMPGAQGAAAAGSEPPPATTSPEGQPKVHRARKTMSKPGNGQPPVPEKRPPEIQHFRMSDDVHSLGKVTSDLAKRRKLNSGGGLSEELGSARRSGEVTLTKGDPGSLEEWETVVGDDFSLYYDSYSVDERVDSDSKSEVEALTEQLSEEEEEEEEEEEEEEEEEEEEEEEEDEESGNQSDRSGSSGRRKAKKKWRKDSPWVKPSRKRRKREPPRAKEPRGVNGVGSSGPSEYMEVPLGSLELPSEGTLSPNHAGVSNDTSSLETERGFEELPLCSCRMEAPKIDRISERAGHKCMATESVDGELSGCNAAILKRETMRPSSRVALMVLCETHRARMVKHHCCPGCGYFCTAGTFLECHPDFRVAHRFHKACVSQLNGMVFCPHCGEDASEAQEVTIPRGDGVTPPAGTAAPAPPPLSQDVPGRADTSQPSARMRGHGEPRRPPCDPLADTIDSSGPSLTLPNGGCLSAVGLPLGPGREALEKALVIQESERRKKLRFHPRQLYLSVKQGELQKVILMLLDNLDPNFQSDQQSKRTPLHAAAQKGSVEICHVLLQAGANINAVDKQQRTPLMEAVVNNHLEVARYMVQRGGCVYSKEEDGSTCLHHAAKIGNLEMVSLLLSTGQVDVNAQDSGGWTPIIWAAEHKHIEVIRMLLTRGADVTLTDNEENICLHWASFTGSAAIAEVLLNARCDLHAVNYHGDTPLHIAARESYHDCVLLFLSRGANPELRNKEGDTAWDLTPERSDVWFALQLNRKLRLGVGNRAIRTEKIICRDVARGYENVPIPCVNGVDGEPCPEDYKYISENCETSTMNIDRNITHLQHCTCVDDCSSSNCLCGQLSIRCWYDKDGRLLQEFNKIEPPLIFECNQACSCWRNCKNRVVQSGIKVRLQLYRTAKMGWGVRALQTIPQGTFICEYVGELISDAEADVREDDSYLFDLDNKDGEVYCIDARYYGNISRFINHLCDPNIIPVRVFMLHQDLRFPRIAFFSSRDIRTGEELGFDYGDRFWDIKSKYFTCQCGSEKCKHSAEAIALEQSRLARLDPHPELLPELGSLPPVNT
# [8] = target: Serine/threonine-protein kinase PLK3 (Homo sapiens, UniProt Q9H4B4); test: Selectivity interaction (Ambit KINOMEscan and KiNATiv profiling in Jurkat cells) EUB0000090b PLK3; type: cell-based; conditions: at 1 µM
# Chain of Serine/threonine-protein kinase PLK3 (Q9H4B4 whole entry, looked up): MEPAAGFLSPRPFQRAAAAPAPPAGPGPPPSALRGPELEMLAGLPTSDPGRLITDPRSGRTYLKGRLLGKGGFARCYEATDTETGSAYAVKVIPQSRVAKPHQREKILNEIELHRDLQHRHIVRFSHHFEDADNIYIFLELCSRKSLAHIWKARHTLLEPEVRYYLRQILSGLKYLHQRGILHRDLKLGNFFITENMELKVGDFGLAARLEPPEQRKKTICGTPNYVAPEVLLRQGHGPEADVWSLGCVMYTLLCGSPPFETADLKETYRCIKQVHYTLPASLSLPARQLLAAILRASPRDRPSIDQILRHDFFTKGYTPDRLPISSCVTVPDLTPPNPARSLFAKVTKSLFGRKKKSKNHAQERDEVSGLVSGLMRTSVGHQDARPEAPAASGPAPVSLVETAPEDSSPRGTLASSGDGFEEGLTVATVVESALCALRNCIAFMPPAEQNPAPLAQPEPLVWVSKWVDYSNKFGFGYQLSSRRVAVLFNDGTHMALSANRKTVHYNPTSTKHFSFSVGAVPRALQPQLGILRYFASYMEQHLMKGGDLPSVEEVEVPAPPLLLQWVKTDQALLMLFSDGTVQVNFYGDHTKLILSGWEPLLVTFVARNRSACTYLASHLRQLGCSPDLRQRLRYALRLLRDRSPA
# [9] = target: Proto-oncogene tyrosine-protein kinase ROS (Homo sapiens) (UniProt P08922); test: Selectivity interaction (Ambit KINOMEscan and KiNATiv profiling in Jurkat cells) EUB0000090b ROS1; type: cell-based; conditions: at 1 µM
# Chain of Proto-oncogene tyrosine-protein kinase ROS (Homo sapiens) (P08922 whole entry): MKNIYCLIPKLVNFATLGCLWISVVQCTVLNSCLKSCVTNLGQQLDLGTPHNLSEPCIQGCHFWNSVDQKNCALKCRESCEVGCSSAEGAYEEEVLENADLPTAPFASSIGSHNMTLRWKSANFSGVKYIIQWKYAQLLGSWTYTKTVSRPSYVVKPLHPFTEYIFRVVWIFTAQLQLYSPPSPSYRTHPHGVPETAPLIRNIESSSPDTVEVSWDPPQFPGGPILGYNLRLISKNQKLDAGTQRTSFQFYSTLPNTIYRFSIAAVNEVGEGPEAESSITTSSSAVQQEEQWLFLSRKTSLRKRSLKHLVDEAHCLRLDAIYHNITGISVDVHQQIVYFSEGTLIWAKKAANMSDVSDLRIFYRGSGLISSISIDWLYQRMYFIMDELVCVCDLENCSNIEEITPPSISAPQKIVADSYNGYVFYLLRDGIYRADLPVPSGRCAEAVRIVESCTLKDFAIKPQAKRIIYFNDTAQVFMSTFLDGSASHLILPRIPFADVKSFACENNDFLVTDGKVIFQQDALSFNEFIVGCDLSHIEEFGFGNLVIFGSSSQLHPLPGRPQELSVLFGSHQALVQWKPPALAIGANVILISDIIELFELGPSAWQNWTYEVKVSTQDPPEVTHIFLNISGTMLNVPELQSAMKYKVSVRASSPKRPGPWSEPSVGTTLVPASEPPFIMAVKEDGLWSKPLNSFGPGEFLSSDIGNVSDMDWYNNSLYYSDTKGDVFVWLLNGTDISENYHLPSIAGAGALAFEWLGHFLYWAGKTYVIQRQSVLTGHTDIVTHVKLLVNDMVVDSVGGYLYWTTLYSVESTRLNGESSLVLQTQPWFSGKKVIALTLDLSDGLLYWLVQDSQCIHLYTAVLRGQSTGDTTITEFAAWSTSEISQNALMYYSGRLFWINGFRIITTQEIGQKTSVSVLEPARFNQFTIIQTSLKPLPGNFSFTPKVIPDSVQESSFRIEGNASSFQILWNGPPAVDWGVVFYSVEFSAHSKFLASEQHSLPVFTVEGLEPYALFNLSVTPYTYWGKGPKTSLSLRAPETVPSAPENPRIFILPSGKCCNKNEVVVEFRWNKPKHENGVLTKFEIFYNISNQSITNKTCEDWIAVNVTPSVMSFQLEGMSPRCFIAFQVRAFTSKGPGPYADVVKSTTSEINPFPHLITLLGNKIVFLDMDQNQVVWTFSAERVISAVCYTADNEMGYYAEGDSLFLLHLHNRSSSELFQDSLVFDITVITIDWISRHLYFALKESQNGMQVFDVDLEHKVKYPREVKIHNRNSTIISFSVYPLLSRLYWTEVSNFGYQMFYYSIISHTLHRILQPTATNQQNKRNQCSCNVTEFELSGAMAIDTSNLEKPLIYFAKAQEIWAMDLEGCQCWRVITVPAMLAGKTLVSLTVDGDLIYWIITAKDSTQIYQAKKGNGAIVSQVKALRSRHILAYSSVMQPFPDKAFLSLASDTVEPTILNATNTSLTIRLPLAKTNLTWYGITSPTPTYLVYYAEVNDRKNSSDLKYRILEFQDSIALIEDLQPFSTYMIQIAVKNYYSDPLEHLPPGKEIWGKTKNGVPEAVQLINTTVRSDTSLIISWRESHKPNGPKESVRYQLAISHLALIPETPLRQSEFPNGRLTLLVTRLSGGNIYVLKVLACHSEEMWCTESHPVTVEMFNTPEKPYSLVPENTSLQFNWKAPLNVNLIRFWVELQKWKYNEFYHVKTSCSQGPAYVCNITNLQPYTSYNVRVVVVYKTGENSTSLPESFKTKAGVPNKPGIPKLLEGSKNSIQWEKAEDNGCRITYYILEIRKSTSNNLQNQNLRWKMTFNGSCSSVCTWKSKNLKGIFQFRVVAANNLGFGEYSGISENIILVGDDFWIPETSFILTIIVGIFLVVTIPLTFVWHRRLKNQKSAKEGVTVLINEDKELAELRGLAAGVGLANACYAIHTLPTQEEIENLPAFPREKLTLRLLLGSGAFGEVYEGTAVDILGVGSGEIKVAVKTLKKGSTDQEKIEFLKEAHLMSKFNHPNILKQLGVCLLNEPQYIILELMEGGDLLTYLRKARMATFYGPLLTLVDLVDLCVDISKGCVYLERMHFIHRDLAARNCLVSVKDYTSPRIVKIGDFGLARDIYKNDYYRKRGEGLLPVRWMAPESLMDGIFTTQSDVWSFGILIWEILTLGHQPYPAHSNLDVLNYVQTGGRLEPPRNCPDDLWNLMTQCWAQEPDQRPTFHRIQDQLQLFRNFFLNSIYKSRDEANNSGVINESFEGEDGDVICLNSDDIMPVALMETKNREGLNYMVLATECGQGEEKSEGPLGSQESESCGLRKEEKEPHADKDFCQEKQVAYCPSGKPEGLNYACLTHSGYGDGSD
# [10] = target: Mitogen-activated protein kinase 10 (Homo sapiens, UniProt P53779); test: Selectivity interaction (ActivX KiNativ screen (ex vivo kinase selectivity in human PBMCs)) EUB0001619a MAPK10; type: cell-based; conditions: PBMC, at 1 µM
# Chain of Mitogen-activated protein kinase 10 (P53779 whole entry): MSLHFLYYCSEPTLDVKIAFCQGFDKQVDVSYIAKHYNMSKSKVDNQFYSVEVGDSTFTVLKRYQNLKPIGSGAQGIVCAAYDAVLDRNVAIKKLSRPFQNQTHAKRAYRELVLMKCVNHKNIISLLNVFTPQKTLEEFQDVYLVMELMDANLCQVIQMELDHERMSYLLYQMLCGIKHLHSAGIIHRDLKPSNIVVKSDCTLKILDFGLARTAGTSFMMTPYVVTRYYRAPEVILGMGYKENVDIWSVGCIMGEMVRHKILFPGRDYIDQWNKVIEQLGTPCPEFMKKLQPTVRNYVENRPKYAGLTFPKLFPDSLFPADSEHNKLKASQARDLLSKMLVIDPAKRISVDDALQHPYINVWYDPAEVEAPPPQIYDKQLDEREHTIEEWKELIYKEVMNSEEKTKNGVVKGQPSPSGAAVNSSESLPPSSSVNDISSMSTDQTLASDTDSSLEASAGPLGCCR
# Chain of Serine/threonine-protein kinase 38 (Homo sapiens) (Q15208 2-465 limits assumed): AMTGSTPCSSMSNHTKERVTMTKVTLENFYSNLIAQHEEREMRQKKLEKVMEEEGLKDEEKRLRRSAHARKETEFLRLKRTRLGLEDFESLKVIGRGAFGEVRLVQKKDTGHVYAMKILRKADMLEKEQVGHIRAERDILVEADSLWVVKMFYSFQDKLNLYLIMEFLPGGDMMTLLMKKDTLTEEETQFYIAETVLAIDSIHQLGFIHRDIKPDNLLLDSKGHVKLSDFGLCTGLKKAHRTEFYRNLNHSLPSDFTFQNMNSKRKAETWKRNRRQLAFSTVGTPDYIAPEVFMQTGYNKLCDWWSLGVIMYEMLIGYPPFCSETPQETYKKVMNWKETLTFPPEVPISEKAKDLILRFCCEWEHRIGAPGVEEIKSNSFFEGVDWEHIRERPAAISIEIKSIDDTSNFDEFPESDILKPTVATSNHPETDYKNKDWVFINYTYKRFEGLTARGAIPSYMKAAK
smiles,measurement,setting,value
COc1cc(N(C)c2ccnc3ccc(C(F)(F)F)cc23)cc(OC)c1OC,% binding,[1],83%
Nc1cnc(N2CCc3cc(S(=O)(=O)Nc4c(F)cc(Cl)cc4F)cc(N4CCCC4=O)c32)nc1 [TP-020n],% of control,[2],100%
O=C(NOC[C@H](O)CO)c1ccc(F)c(F)c1Nc1ccc(I)cc1F,% of control,[3],76%
Cc1cc([C@@H](C)Nc2ccccc2C(=O)O)c2nc(N3CCOCC3)cc(=O)n2c1 [AZD-6482],% of control,[4],87%
CC[C@@H]1[C@H](F)C(=O)N[C@@H]1COc1nccc2cc(C(N)=O)c(OC)cc12 [ZIMLOVISERTIB],% of inhibition,[5],-1.85%
COc1cc(Nc2nc(C)cc(-c3cnn4nc(OC)ccc34)n2)cc(C(F)(F)F)c1,% of control,[6],79%
Cc1cc(C)cc([C@@H]2c3cc(C)ccc3NC(=O)CN2C(=O)c2ccc(Br)s2)c1,% of activity,[7]; at 1 µM,96%
same,% of activity,[7]; at 10 µM,96.3%
CN(C)C/C=C/C(=O)Nc1ccc(C(=O)N2CCCC(Nc3ncc(Cl)c(-c4c[nH]c5ccccc45)n3)C2)cc1 (stereo unspecified),% of control,[8],86%
same,% of control,[9],85%
N#Cc1cccc(-c2c[nH]c3ncnc(N4CCOCC4)c23)c1,% of inhibition,[10],5%
